Converted amounts (≈) assume the structure as drawn. The source made the active and inactive calls. No cut-off for these calls is given here.
How the values were obtained:
[1] = Cytotoxicity against human Caco2 cells after 72 hrs by WST-8 assay; type: functional, cell-based; conditions: Caco-2, 72 h
A549 = assay: Cytotoxicity against human A549 cells after 72 hrs by WST-8 assay; type: functional, cell-based; conditions: A549, 72 h
HeLa = assay: Cytotoxicity against human HeLa cells assessed as growth inhibition at 1 ug/ml after 72 hrs by WST-8 assay; type: functional; conditions: read-out: GI
P388 = assay: Antitumor activity against mouse P388 cells xenografted in CDF1 mouse at 0.5 mg/kg administered on day 1 and day 5 relative to control; type: functional
Homo sapiens = species: Homo sapiens; assay: Binding affinity to actin (unknown origin) by surface plasmon resonance analysis

## C=CC[C@H](C)[C@@H](O)C[C@@H]1C[C@H]2O[C@H](/C=C(C)/C=C/C[C@H]3C[C@@H]4O[C@@H](/C=C/CCCCC)C[C@@H]4O3)C[C@H]2O1
[1]
  IC50: 0.1 µg/mL (≈ 0.194 µM)
A549
  IC50: 0.6 µg/mL (≈ 1.17 µM)
HeLa
  inhibition of growth at 1 µg/mL: 20%
P388
  T/C: 120%
Homo sapiens
  Activity: Active
